Results taken from patent US9233961B2, “Compounds and compositions for the treatment of parasitic diseases” (Novartis AG, priority 2013, dated 2016).
Read-outs that look alike come from different tables or passages of the source.

What was measured:
[1] = tested on: Leishmania donovani axenic amastigote parasites; assay: Leishmania donovani axenic amastigote proliferation assay; assay type: cell-based; details: axenic amastigotes in vitro, read-out: L. donovani amastigotes EC50
Procedure, shortened: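 L. donovani axenic amastigotes (9600/well) in RPMI 1640 with 20% heat-inactivated FBS, folic acid, adenosine, glucose and 25 mM MES, pH 5.5, were incubated with compounds for 2 days at 37 °C, 5% CO2. Viability read by CellTiter-Glo luminescence; EC50 calculated.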

[2] = tested on: L. donovani HU3 strain in mouse peritoneal macrophages; assay: Assay for proliferation of Leishmania parasites in mouse peritoneal macrophages; assay type: cell-based, Leishmania donovani; details: Leishmania donovani, Peritoneal macrophage, read-out: L. donavani Macrophage EC50
Procedure, shortened: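 BALB/c peritoneal macrophages infected 24 h with L. donovani HU3 amastigotes taken from spleens of mice infected 9–11 weeks, then treated with compound for 5 days at 37° C, 5% CO2. Parasite nuclei counted by SYBR Green imaging after fixation; EC50 from percentage inhibition.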

[3] = tested on: Trypanosoma brucei Lister 427 strain bloodstream form; assay: Assay for proliferation of kinetoplastid parasite Trypanosoma brucei; assay type: cell-based
Procedure, shortened: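 Bloodstream-form T. brucei Lister 427 in HMI-9 medium was exposed to compound (DMSO vehicle) for 48 hours at 37° C, 5% CO2. Parasite growth was read as ATP by CellTiter-Glo luminescence, with EC50 calculated from percent inhibition.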

[4] = tested on: Trypanosoma cruzi amastigotes (Tulahuen strain) cultured in 3T3 fibroblast cells; assay: Assay for proliferation of kinetoplastid parasite Trypanosoma cruzi; assay type: cell-based; details: 144 h, Tulahuen amastigotes in 3T3 fibroblast cells, 6 day incubation, read-out: T cruzi EC50
Text: Assay for Proliferation of Kinetoplastid Parasite Trypanosoma cruzi.
Compounds of the invention can be assayed to measure their capacity to inhibit proliferation of kinetoplastid parasite Trypanosoma cruzi. The screening procedure is for identifying compounds with inhibitor activity against Trypanosoma cruzi amastigotes cultured in 3T3 fibroblast cells. The assay is done using the mammalian stage (amastigotes) of T. cruzi that replicates in the intracellular space of host cells. The host cells are initially infected with the culture-derived trypomastigotes that rapidly invade and then divide as amastigotes. The protocol uses the Tulahuen strain of T. cruzi that has been engineered to express the E. coli beta-galactosidase gene (Lac-Z) (Antimicr. Agents Chemoth. 40:2592, 1996). This allows for a colorimetric readout by using the substrate CPRG and an absorbance plate reader.
3T3 fibroblast cells are re-suspended in RPMI-1640 medium without phenol red medium supplemented with 10% FBS (heat inactivated), 100 μg/ml penicillin, and 100 μg/ml streptomycin. Forty μL of suspension (1,000 cells) is dispensed into 384-well plates and incubated overnight at 37° C. temperature and in atmosphere containing 5% CO2. The following day, 100 nL of compounds of the invention in DMSO are added to plate wells containing 3T3 cells. At the same time control compounds (benznidazole and nifurtimox) and DMSO are added to plates to serve as the positive and negative controls, respectively. After that, 10 μL of media containing 10,000 T. cruzi trypomastigotes are added to each plate well and plates are placed back into incubators. After 6 day incubation, 10 μL of reagent solution (0.6 mM CPRG, 0.6% NP-40 in PBS) is added to plates and incubated at room temperature for 2 hours. Absorbance is then measured on SpectraMax Gemini […] to determine relative number of T. cruzi cells present in each plate well. The percentage inhibition of 50%, EC50, is calculated for each compound. […] Typically, the EC50 is 10 μM or less.

[5] = Lister 427 bloodstream form, 48 hours, read-out: T. brucei EC50
[6] = T. brucei Lister 427, 48 hours, Cell Titer Glo, read-out: EC50

SMILES: NC(=O)c1ccc(-c2cnc3nc(-c4cc(NC(=O)c5ccco5)ccc4Cl)[nH]c3c2)cc1 [Compound 19, N-{3-[6-(4-carbamoylphenyl)-1H-imidazo[4,5-b]pyridin-2-yl]-4-chlorophenyl}furan-2-carboxamide]
- EC50 [1]: 165 nM
- EC50 [2]: > 50000 nM
- EC50 [3, 5]: 5.8 nM
- EC50 [3, 6]: 6 nM
- EC50 [4]: > 20000 nM

SMILES: COc1ccc(-c2cnc3nc(-c4cc(NC(=O)c5ccco5)ccc4Cl)[nH]c3c2)cn1 [Compound 29, N-{4-chloro-3-[6-(6-methoxypyridin-3-yl)-1H-imidazo [4,5-b]pyridin-2-yl]phenyl}furan-2-carboxamide]
- EC50 [1]: 234 nM
- EC50 [2]: 2290 nM
- EC50 [3, 5]: 23.5 nM
- EC50 [3, 6]: 24 nM
- EC50 [4]: 71 nM

SMILES: O=C(Nc1ccc(Cl)c(-c2nc3ncc(-c4ccc(OCc5ccccc5)cc4)cc3[nH]2)c1)c1ccco1 [Compound 47]
- EC50 [1]: 460 nM
- EC50 [2]: > 7200 nM
- EC50 [3, 5]: 40 nM
- EC50 [4]: 104 nM

SMILES: O=C(Nc1ccc(Cl)c(-c2nc3ncc(-c4cccnc4)cc3[nH]2)c1)c1ccco1 [Compound 50]
- EC50 [1]: 134 nM
- EC50 [2]: 1640 nM
- EC50 [3, 5]: 2.62 nM
- EC50 [4]: 53 nM

SMILES: COCCOc1ccc(-c2cnc3nc(-c4cc(NC(=O)c5ccco5)ccc4Cl)[nH]c3c2)c(F)n1 [Compound 52]
- EC50 [1]: 188 nM
- EC50 [2]: > 14500 nM
- EC50 [3, 5]: 36 nM
- EC50 [4]: 68 nM

SMILES: COC(=O)Nc1ccc(-c2cnc3nc(-c4cc(NC(=O)c5ccco5)ccc4Cl)[nH]c3c2)cc1 [Compound 58, methyl N-(4-{2-[2-chloro-5-(furan-2-amido)phenyl]-1H-imidazo[4,5-b]pyridin-6-yl}phenyl)carbamate]
- EC50 [1]: 51 nM
- EC50 [2]: 284 nM
- EC50 [3, 5]: 5.1 nM
- EC50 [3, 6]: 5 nM
- EC50 [4]: 19.3 nM

SMILES: CC(C)(C)OC(=O)N1CC=C(c2cnc3nc(-c4cc(NC(=O)c5ccco5)ccc4Cl)[nH]c3c2)CC1 [Compound 63]
- EC50 [1]: 560 nM
- EC50 [2]: 1600 nM
- EC50 [3, 5]: 21.7 nM
- EC50 [4]: 108 nM

SMILES: O=C(Nc1ccc(Cl)c(-c2nc3ncc(C4=CCNCC4)cc3[nH]2)c1)c1ccco1 [Compound 70]
- EC50 [1]: 6000 nM
- EC50 [2]: 20800 nM
- EC50 [3, 5]: 174 nM
- EC50 [4]: 490 nM

SMILES: Cc1cnc2nc(-c3cc(NC(=O)c4ccccn4)ccc3Cl)[nH]c2c1 [Compound 83]
- EC50 [1]: 7000 nM
- EC50 [2]: 23300 nM
- EC50 [3, 5]: 930 nM
- EC50 [4]: 1300 nM

SMILES: Cc1cnc2nc(-c3cc(NC(=O)c4ccc(N5CCOCC5)cn4)ccc3Cl)[nH]c2c1 [Compound 84]
- EC50 [1]: 6700 nM
- EC50 [2]: > 50000 nM
- EC50 [3, 5]: 2130 nM
- EC50 [4]: 2300 nM

SMILES: Cc1cnc2nc(-c3cc(NC(=O)Cc4cccc(Cl)c4)ccc3Cl)[nH]c2c1 [Compound 85]
- EC50 [1]: > 25000 nM
- EC50 [2]: 21300 nM
- EC50 [3, 5]: 9300 nM
- EC50 [4]: > 11500 nM

SMILES: Cc1cnc2nc(-c3cc(NC(=O)c4ccc(Cl)o4)ccc3Cl)[nH]c2c1 [Compound 86]
- EC50 [1]: 840 nM
- EC50 [2]: 3090 nM
- EC50 [3, 5]: 183 nM
- EC50 [4]: 69 nM

SMILES: Cc1cnc2nc(-c3cc(NC(=O)c4cccc(Cl)c4)ccc3Cl)[nH]c2c1 [Compound 89]
- EC50 [1]: 3700 nM
- EC50 [2]: 9200 nM
- EC50 [3, 5]: 260 nM
- EC50 [4]: 175 nM

SMILES: Cc1cnc2nc(-c3cc(NC(=O)c4cc(Cl)ccc4Cl)ccc3Cl)[nH]c2c1 [Compound 98]
- EC50 [1]: 16700 nM
- EC50 [2]: 23500 nM
- EC50 [3, 5]: 2910 nM
- EC50 [4]: 1180 nM

SMILES: Cc1cnc2nc(-c3cc(NC(=O)c4cccc(N5CCCCC5)c4)ccc3Cl)[nH]c2c1 [Compound 99]
- EC50 [1]: > 25000 nM
- EC50 [2]: > 50000 nM
- EC50 [3, 5]: 6300 nM
- EC50 [4]: 5500 nM

SMILES: Cc1cnc2nc(-c3cc(NC(=O)c4ccc[nH]4)ccc3Cl)[nH]c2c1 [Compound 100]
- EC50 [1]: 6300 nM
- EC50 [2]: 6400 nM
- EC50 [3, 5]: 1420 nM
- EC50 [4]: 2170 nM
